Results from patent US20260007758A1, “SO[…]-2 RECEPTOR (SST2R) NON-PEPTIDE DRUG CONJUGATES AND USES THEREOF” (Crinetics Pharmaceuticals, Inc., priority 2024, published 2026).

Tests used:
Type in all cases: cell-based
[1] = biological target: T1, human somatostatin receptor subtype 2 (Homo sapiens, UniProt P30874); experiment: Functional assay for SSTR2 agonists (HTRF cAMP); conditions: CHO-K1 cells stably expressing human SST2; NKH477-stimulated cAMP; 20 min at 37 C; read-out: hSST2 cAMP Avg EC50
T1 construct: expressed in transfected cells
In short: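 CHO-K1 cells stably expressing human SSTR2 treated with compound (typically 0-10,000 nM final) for 20 min at 37 °C. Lysate cAMP measured by HTRF (665/620 nm ratio), converted via standard curve; EC50 from cAMP vs concentration.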

[2] = biological target: T2, SST2 (Homo sapiens, UniProt P30874); experiment: PathHunter CHO-K1 SST2 Internalization Assay; conditions: PathHunter CHO-K1 SST2 cells; 90 min at 37 C; luminescence; read-out: Internalization EC50
T2 construct: host or cells: PathHunter CHO-K1 SST2 cells
In short: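 CHO-K1 cells expressing human SST2, 2500 cells/well, grown 48 h, then exposed 90 min at 37 C to 11-point 1:3 NDC dilutions (final top 10 uM). Beta-Glo luminescence after 60 min at room temperature; four-parameter IC50, duplicate mean, background-corrected.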

[3] = test system: NCI-H524 human small cell lung cancer cells; experiment: H524 assay: inhibition of cell proliferation (CellTiter Glo); conditions: 2 h treatment, washout, additional 70 h incubation
In short: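 NCI-H524 cells were exposed for 2 h to NDC in an 11-point two-fold series starting at 1 uM. The drug was then washed out and cells grew a further 70 h. CellTiter Glo luminescence gave % inhibition versus untreated control, and IC50 came from a four-parameter nonlinear regression.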

T1 sequence (P30874 whole entry): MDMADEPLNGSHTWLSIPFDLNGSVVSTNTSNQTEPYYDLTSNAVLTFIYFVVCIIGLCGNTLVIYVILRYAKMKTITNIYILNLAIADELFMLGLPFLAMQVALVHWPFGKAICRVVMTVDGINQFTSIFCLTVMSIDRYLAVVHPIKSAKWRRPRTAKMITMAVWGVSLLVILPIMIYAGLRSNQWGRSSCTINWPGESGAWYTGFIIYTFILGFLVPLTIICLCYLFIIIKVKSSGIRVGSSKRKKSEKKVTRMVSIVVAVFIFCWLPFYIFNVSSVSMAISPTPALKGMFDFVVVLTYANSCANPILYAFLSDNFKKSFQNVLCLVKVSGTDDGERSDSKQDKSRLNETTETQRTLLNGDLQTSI
T2 sequence (P30874 whole entry): as above

`CC[C@H](C)[C@@H]([C@@H](CC(=O)N1CCC[C@H]1[C@H](OC)[C@@H](C)C(=O)N[C@H](C)[C@@H](O)c1ccccc1)OC)N(C)C(=O)[C@@H](NC(=O)[C@H](C(C)C)N(C)C(=O)OCc1ccc(NC(=O)[C@H](CCCNC(N)=O)NC(=O)[C@@H](NC(=O)C[C@@H](N)C(=O)NCCOCCC(=O)NCCNc2ncc(-c3cc(C)cc(F)c3)c(N3CCC(NC)CC3)c2-c2nc3ccc(Cl)cc3[nH]2)C(C)C)c(O[C@@H]2O[C@H](C(=O)O)[C@@H](O)[C@H](O)[C@H]2O)c1)C(C)C` [Compound 121] was tested, and the EC50 [1] was 0.14 nM, the EC50 [2] was 5.3 nM and the EC50 [3] was 19 nM.

Molecule `CC[C@H](C)[C@@H]([C@@H](CC(=O)N1CCC[C@H]1[C@H](OC)[C@@H](C)C(=O)N[C@H](C)[C@@H](O)c1ccccc1)OC)N(C)C(=O)[C@@H](NC(=O)[C@H](C(C)C)N(C)C(=O)OCc1ccc(NC(=O)[C@H](CCCNC(N)=O)NC(=O)[C@@H](NC(=O)C[C@@H](N)C(=O)NCCOCCOCCOCCOCCC(=O)NCCNc2ncc(-c3cc(C)cc(F)c3)c(N3CCC(NC)CC3)c2-c2nc3ccc(Cl)cc3[nH]2)C(C)C)c(O[C@@H]2O[C@H](C(=O)O)[C@@H](O)[C@H](O)[C@H]2O)c1)C(C)C` [Compound 122] has an EC50 [1] of 0.19 nM, an EC50 [2] of 8.8 nM and an EC50 [3] of 27 nM.

`CC[C@H](C)[C@@H]([C@@H](CC(=O)N1CCC[C@H]1[C@H](OC)[C@@H](C)C(=O)N[C@H](C)[C@@H](O)c1ccccc1)OC)N(C)C(=O)[C@@H](NC(=O)[C@H](C(C)C)N(C)C(=O)OCc1ccc(NC(=O)[C@H](CCCNC(N)=O)NC(=O)[C@@H](NC(=O)C[C@@H](N)C(=O)NCCOCCC(=O)NCCNc2ncc(-c3cc(C)cc(F)c3)c(N3CCC(NC)CC3)c2-c2nc3cc(F)cc(OC)c3[nH]2)C(C)C)c(O[C@@H]2O[C@H](C(=O)O)[C@@H](O)[C@H](O)[C@H]2O)c1)C(C)C` [Compound 123] showed an EC50 [1] of 0.2 nM, an EC50 [2] of 2.3 nM and an EC50 [3] of 8.4 nM.

In the case of `CC[C@H](C)[C@@H]([C@@H](CC(=O)N1CCC[C@H]1[C@H](OC)[C@@H](C)C(=O)N[C@H](C)[C@@H](O)c1ccccc1)OC)N(C)C(=O)[C@@H](NC(=O)[C@H](C(C)C)N(C)C(=O)OCc1ccc(NC(=O)[C@H](C)NC(=O)[C@@H](NC(=O)CCOCCC(=O)NCCN(C)c2ncc(-c3cc(C)cc(F)c3)c(N3CCC(N)CC3)c2-c2nc3ccc(Cl)cc3[nH]2)C(C)C)c(O[C@@H]2O[C@H](C(=O)O)[C@@H](O)[C@H](O)[C@H]2O)c1)C(C)C` [Compound 125], the EC50 [1] is reported as 0.59 nM, the EC50 [2] is reported as 48 nM and the EC50 [3] is reported as 580 nM.

Work on `CC[C@H](C)[C@@H]([C@@H](CC(=O)N1CCC[C@H]1[C@H](OC)[C@@H](C)C(=O)N[C@H](C)[C@@H](O)c1ccccc1)OC)N(C)C(=O)[C@@H](NC(=O)[C@H](C(C)C)N(C)C(=O)OCc1ccc(NC(=O)[C@H](C)NC(=O)[C@@H](NC(=O)CCOCCC(=O)NCCNc2ncc(-c3cc(C)cc(F)c3)c(N3CCC(N)CC3)c2-c2nc3cnccc3[nH]2)C(C)C)c(O[C@@H]2O[C@H](C(=O)O)[C@@H](O)[C@H](O)[C@H]2O)c1)C(C)C` [Compound 127] yielded an EC50 [1] of 1.6 nM, an EC50 [2] of 290 nM and an EC50 [3] of 170 nM.

Molecule `CC[C@H](C)[C@@H]([C@@H](CC(=O)N1CCC[C@H]1[C@H](OC)[C@@H](C)C(=O)N[C@H](C)[C@@H](O)c1ccccc1)OC)N(C)C(=O)[C@@H](NC(=O)[C@H](C(C)C)N(C)C(=O)OCc1ccc(NC(=O)[C@H](C)NC(=O)[C@@H](NC(=O)CCOCCC(=O)NCCNc2ncc(-c3cncc(C)c3)c(N3CCC(N)CC3)c2-c2nc3ccc(Cl)cc3[nH]2)C(C)C)c(O[C@@H]2O[C@H](C(=O)O)[C@@H](O)[C@H](O)[C@H]2O)c1)C(C)C` [Compound 129] has an EC50 [1] of 190 nM, an EC50 [2] of 960 nM and an EC50 [3] of 3000 nM.

`CC[C@H](C)[C@@H]([C@@H](CC(=O)N1CCC[C@H]1[C@H](OC)[C@@H](C)C(=O)N[C@H](C)[C@@H](O)c1ccccc1)OC)N(C)C(=O)[C@@H](NC(=O)[C@H](C(C)C)N(C)C(=O)OCc1ccc(NC(=O)[C@H](CCCNC(N)=O)NC(=O)[C@@H](NC(=O)c2cn(CCOCCC(=O)NCCNc3ncc(-c4cc(C)cc(F)c4)c(N4CCC(N)CC4)c3-c3nc4ccc(Cl)cc4[nH]3)nn2)C(C)C)c(O[C@@H]2C[C@H](C(=O)O)[C@@H](O)[C@H](O)[C@H]2O)c1)C(C)C` [Compound 131] showed an EC50 [1] of 0.34 nM, an EC50 [2] of 4.5 nM and an EC50 [3] of 1600 nM.

Work on `CC[C@H](C)[C@@H]([C@@H](CC(=O)N1CCC[C@H]1[C@H](OC)[C@@H](C)C(=O)N[C@H](C)[C@@H](O)c1ccccc1)OC)N(C)C(=O)[C@@H](NC(=O)[C@H](C(C)C)N(C)C(=O)OCc1ccc(NC(=O)[C@H](CCCNC(N)=O)NC(=O)[C@@H](NS(=O)(=O)C[C@H](C)CC(=O)CCOCCC(=O)NCCNc2ncc(-c3cc(C)cc(F)c3)c(N3CCC(N)CC3)c2-c2nc3ccc(Cl)cc3[nH]2)C(C)C)c(O[C@@H]2C[C@H](C(=O)O)[C@@H](O)[C@H](O)[C@H]2O)c1)C(C)C` [Compound 132] yielded an EC50 [1] of 0.26 nM, an EC50 [2] of 3.2 nM and an EC50 [3] of 410 nM.

Work on `CC[C@H](C)[C@@H]([C@@H](CC(=O)N1CCC[C@H]1[C@H](OC)[C@@H](C)C(=O)N[C@H](C)[C@@H](O)c1ccccc1)OC)N(C)C(=O)[C@@H](NC(=O)[C@H](C(C)C)N(C)C(=O)OCc1ccc(NC(=O)[C@H](CCCNC(N)=O)NC(=O)[C@@H](NC(=O)CCOCCC(=O)N(C)CC(=O)NCCNc2ncc(-c3cc(C)cc(F)c3)c(N3CCC(N)CC3)c2-c2nc3ccc(Cl)cc3[nH]2)C(C)C)c(O[C@@H]2O[C@H](C(=O)O)[C@@H](O)[C@H](O)[C@H]2O)c1)C(C)C` [Compound 133] yielded an EC50 [1] of 0.097 nM, an EC50 [2] of 5.3 nM and an EC50 [3] of 1900 nM.

`CC[C@H](C)[C@@H]([C@@H](CC(=O)N1CCC[C@H]1[C@H](OC)[C@@H](C)C(=O)N[C@H](C)[C@@H](O)c1ccccc1)OC)N(C)C(=O)[C@@H](NC(=O)[C@H](C(C)C)N(C)C(=O)OCc1ccc(NC(=O)[C@H](C)NC(=O)[C@@H](NC(=O)CCOCCC(=O)N(C)CC(=O)NCCNc2ncc(-c3cc(C)cc(F)c3)c(N3CCC(N)CC3)c2-c2nc3ccc(Cl)cc3[nH]2)C(C)C)c(O[C@@H]2O[C@H](C(=O)O)[C@@H](O)[C@H](O)[C@H]2O)c1)C(C)C` [Compound 134] was tested, and the EC50 [1] was 0.11 nM, the EC50 [2] was 2.1 nM and the EC50 [3] was 1200 nM.

`CC[C@H](C)[C@@H]([C@@H](CC(=O)N1CCC[C@H]1[C@H](OC)[C@@H](C)C(=O)N[C@H](C)[C@@H](O)c1ccccc1)OC)N(C)C(=O)[C@@H](NC(=O)[C@H](C(C)C)N(C)C(=O)OCc1ccc(NC(=O)[C@H](C)NC(=O)[C@@H](NC(=O)C[C@@H](N)C(=O)NCCOCCOCCC(=O)NCCNc2ncc(-c3cc(C)cc(F)c3)c(N3CCC(N)CC3)c2-c2nc3ccc(Cl)cc3[nH]2)C(C)C)c(O[C@@H]2O[C@H](C(=O)O)[C@@H](O)[C@H](O)[C@H]2O)c1)C(C)C` [Compound 136] showed an EC50 [1] of 0.29 nM, an EC50 [2] of 3.5 nM and an EC50 [3] of 540 nM.

Molecule `CC[C@H](C)[C@@H]([C@@H](CC(=O)N1CCC[C@H]1[C@H](OC)[C@@H](C)C(=O)N[C@H](C)[C@@H](O)c1ccccc1)OC)N(C)C(=O)[C@@H](NC(=O)[C@H](C(C)C)N(C)C(=O)OCc1ccc(NC(=O)[C@H](CCCNC(N)=O)NC(=O)[C@@H](NC(=O)C[C@@H](N)C(=O)NCCOCCOCCC(=O)NCCNc2ncc(-c3cc(C)cc(F)c3)c(N3CCC(N)CC3)c2-c2nc3ccc(Cl)cc3[nH]2)C(C)C)c(O[C@@H]2O[C@H](C(=O)O)[C@@H](O)[C@H](O)[C@H]2O)c1)C(C)C` [Compound 137] has an EC50 [1] of 0.27 nM, an EC50 [2] of 2.8 nM and an EC50 [3] of 850 nM.

For `CC[C@H](C)[C@@H]([C@@H](CC(=O)N1CCC[C@H]1[C@H](OC)[C@@H](C)C(=O)N[C@H](C)[C@@H](O)c1ccccc1)OC)N(C)C(=O)[C@@H](NC(=O)[C@H](C(C)C)N(C)C(=O)OCc1ccc(NC(=O)[C@H](C)NC(=O)[C@@H](NC(=O)CCOCCC(=O)NCCNc2ncc(-c3cc(C)cc(F)c3)c(N3CCC(N)CC3)c2-c2nc3ccc(F)cc3[nH]2)C(C)C)c(O[C@@H]2O[C@H](C(=O)O)[C@@H](O)[C@H](O)[C@H]2O)c1)C(C)C` [Compound 138], the EC50 [1] was 0.072 nM, the EC50 [2] was 4.4 nM and the EC50 [3] was 20 nM.

`CC[C@H](C)[C@@H]([C@@H](CC(=O)N1CCC[C@H]1[C@H](OC)[C@@H](C)C(=O)N[C@H](C)[C@@H](O)c1ccccc1)OC)N(C)C(=O)[C@@H](NC(=O)[C@H](C(C)C)N(C)C(=O)OCc1ccc(NC(=O)[C@H](C)NC(=O)[C@@H](NC(=O)CCOCCC(=O)NCCNc2ncc(-c3cc(F)cc(OC)c3)c(N3CCC(N)CC3)c2-c2nc3ccc(Cl)cc3[nH]2)C(C)C)c(O[C@@H]2O[C@H](C(=O)O)[C@@H](O)[C@H](O)[C@H]2O)c1)C(C)C` [Compound 139] gave an EC50 [1] of 0.1 nM, an EC50 [2] of 4.9 nM and an EC50 [3] of 30 nM.

With `CC[C@H](C)[C@@H]([C@@H](CC(=O)N1CCC[C@H]1[C@H](OC)[C@@H](C)C(=O)N[C@H](C)[C@@H](O)c1ccccc1)OC)N(C)C(=O)[C@@H](NC(=O)[C@H](C(C)C)N(C)C(=O)OCc1ccc(NC(=O)[C@H](C)NC(=O)[C@@H](NC(=O)CCOCCC(=O)NCCNc2ncc(-c3cc(C)cc(F)c3)c(N3CCC(N)CC3)c2-c2nc3cc(F)cc(OC)c3[nH]2)C(C)C)c(O[C@@H]2O[C@H](C(=O)O)[C@@H](O)[C@H](O)[C@H]2O)c1)C(C)C` [Compound 140] the EC50 [1] was 0.15 nM, the EC50 [2] was 2.9 nM and the EC50 [3] was 6.6 nM.
